Source: patent US20090192226A1, “Materials and Methods for Treatment of Pathological Ocular Vascular Proliferation” (priority 2007, published 2009)
Residues, ends and D or L forms follow the SMILES beside them.

Legend:
[1] = tested on: vascular endothelial growth factor (VEGF); assay: retinal cell culture model, vascular endothelial growth factor (VEGF); assay type: cell-based
[2] = tested on: retinal cell culture model; assay: retinal cell culture model, transepithelial resistance (TER); assay type: cell-based
[3] = tested on: pups undergoing the OIR model; assay: OIR model in pups, oral gavage: pre-retinal neovascularization, vaso-obliteration, vascular density; assay type: in vivo, mouse; details: for reduction in pre-retinal neovascularization relative to vehicle / area of vaso-obliteration: OIR pups; for reduction in pre-retinal neovascularization relative to vehicle: gavaged twice daily P12-P17, H&E cross-sections on P17; for area of vaso-obliteration: gavaged twice daily P12-P17, assessed in P17 pups, vehicle 30.4±7.9%
From the text: Retinopathy of prematurity (ROP) is the major cause of blindness in children. Supplementation with arginine or glutamine results in improved clinical outcomes in premature infants. In this study the protective effect of oral administration of Arg-Gln alone and in combination with DHA was examined in pups undergoing the OIR model. METHODS: Nursing dams and pups were returned to normal room air on P12 (postnatal day 12) and gavaged twice daily with: Arg-Gln, DHA, Arg-Gln+DHA or vehicle (P12-P17). Normoxic pups were treated in an identical manner. On P17 the pups were perfused with FITC-labeled dextran. One eye was embedded in paraffin, cross-sectioned and H&E (hematoxylin and eosin) stained for analysis of pre-retinal neovascularization. The retina from the second eye was removed and underwent microscopic analysis for the vessel regrowth, which was evaluated by vessel density.

Compound | vascular endothelial growth factor (VEGF) [1] | transepithelial resistance (TER) [2] | pre-retinal neovascularization (result in words) ([3]; OIR mouse model, conclusions) | vaso-obliteration (result in words) ([3]; OIR mouse model, conclusions) | intra-retinal vascular density, a measure of vascular regrowth ([3]; OIR pups following hyperoxia exposure, P17, compared to vehicle treated and normoxic pups) | reduction in pre-retinal neovascularization relative to vehicle [3] [%] | area of vaso-obliteration [3] [%]
N=C(N)NCCC[C@H](N)C(=O)N[C@@H](CCC(N)=O)C(=O)O [Arg-Gln dipeptide, arginyl-glutamine] (H-Arg-Gln-OH) | decreased | increased | dramatically inhibited | reduced | restored | 35±1 | 4.8±1.0
CC/C=C\C/C=C\C/C=C\C/C=C\C/C=C\C/C=C\CCC(=O)O [DHA, decosahexaenoic acid] | – | – | – | – | – | 45±2 | 3.6±1.3
